The text below walks through data of article PMC12383145, “Fluorescent Peptides Internalize HeLa Cells and Kill Multidrug-Resistant Clinical Bacterial Isolates” (Antibiotics, 2025).

In brackets after ≈: the same amount, converted by molar mass. Several values for one entry are separate records, joined by “and”; a condition that tells them apart may be missing. Equal values may be shown once. Read-outs that look alike come from different tables or passages of the source. Positions of bridges follow the written chain, without caps; N, C: chain ends. Non-standard residues stand in square brackets, D forms with d. Residues, ends and D or L forms follow the SMILES beside them. Chains are numbered I, II in the order given. *: point of attachment. RhodamineB = CCN(CC)c1ccc2c(-c3ccccc3C(=O)*)c3ccc(=[N+](CC)CC)cc-3oc2c1; hPhe = N[C@@H](CCc1ccccc1)C(=O)O; 2Abz = Nc1ccccc1C(=O)O; Ahx = NCCCCCC(=O)O

Type in all cases: cell-based
The test system of data set [1] is E. coli ATCC 25922. The settings on record: E. coli ATCC 25922. The method, then: (§1) The minimum inhibitory concentration (MIC) of the peptides was determined by the broth microdilution technique, according to the Clinical and Laboratory Standards Institute (CLSI) guidelines, as previously described. Briefly, bacterial strains were incubated in BHI broth at 37 °C until they reached the exponential growth phase, and inocula were adjusted to 5 × 10^6 CFU/mL using calibration curves. Serial dilutions of the peptides to be evaluated in 96-well plates were made in 90 µL of Mueller Hinton broth at concentrations ranging from 200 to 6.25 µg/mL, and 10 µL of the inoculum adjusted to 5 × 10^6 CFU/mL was added. Finally, the plates were incubated at 37 °C for 24 h, and the absorbance at 620 nm was read. As a negative control, CMH, distilled water, and 10 µL of inoculum were used; for the positive control, vancomycin was used for Gram-positive strains and ciprofloxacin for Gram-negative strains at the MICs dictated by the CLSI; as a technical control, CMH with peptone water was used, and for the growth control, CMH was used with 10 µL of inoculum.
(§2) To determine the minimum bactericidal concentration (MBC), the 96-well plates where the MIC was determined were used as a starting point. From these, an aliquot of the controls and those wells where no apparent bacterial growth was observed were spotted onto trypticase soy agar plates. The plates were incubated at 37 °C for 24 h, and the reading was taken, identifying the lowest concentration of the peptide where there was no bacterial growth as the MBC.

Data set [2] concerns E. faecalis ATCC 29212. The conditions noted are these: E. faecalis ATCC 29212. The method, then:
as §1, §2

In data set [3] the test system is K. pneumoniae ATCC 700603. The settings on record: K. pneumoniae ATCC 700603. On the procedure:
as §1, §2

The subject of data set [4] is P. aeruginosa ATCC 27853. The conditions noted are these: P. aeruginosa ATCC 27853. The method, then: as §1, §2
The subject of data set [5] is S. aureus ATCC 25923. The conditions noted are these: S. aureus ATCC 25923. The method, then:
as §1, §2

Data set [6] relates to S. aureus clinical isolate 11719. The conditions noted are these: S. aureus clinical isolate 11719.
Data set [7] relates to E. coli clinical isolate 1004 (susceptible). The settings on record: E. coli clinical isolate 1004. On the procedure:
(§3) E. coli isolates 1004 (susceptible), 129797 (resistant), and 301755 (MDR) were selected for evaluation. Isolate 1004 was sensitive to all antibiotics tested. […] These findings identify it as a multidrug-resistant (MDR) strain and an extended-spectrum beta-lactamase (ESBL)-producing bacterium. For S. aureus, isolates 109095, 117719, and 124653 were evaluated. All three were resistant to penicillin, indicating beta-lactamase production mediated by the blaZ gene. Studies have shown that up to 90% of S. aureus isolates worldwide are penicillin-resistant, which implies that this antibiotic is ineffective in infections caused by this pathogen. […] Isolate 124653 was resistant to penicillin, tetracycline, and erythromycin, with the latter belonging to the group of macrolides, antibiotics that inhibit protein synthesis through interaction with the 50S […] subunit. For E. faecalis three isolates were selected: strains 213 (sensitive to all the antibiotics tested), strain 82 (resistant to streptomycin), and strain 179 (resistant to gentamicin). These clinical isolates were selected to assess the antimicrobial activity of the peptide RWQWRWQWR and its analogues conjugated to fluorescent molecules in strains against strains with susceptibility profiles.
(§4) The analysis of synthesized peptides in ATCC reference strains and susceptible, resistant, and multidrug-resistant (MDR) clinical isolates was performed. The clinical isolates were obtained from the National Cancer Institute collection and were previously identified and antibiogrammed using the VITEK system. Additionally, the strains were characterized by MALDI-TOF. The strains were re-primed onto trypticase soy agar and subsequently preserved in Brain–Heart Infusion (BHI) broth containing 20% glycerol. For the MIC and MBC assays, the strains were reactivated and cultured in BHI until they reached their exponential growth phase.
as §1, §2

The test system of data set [8] is E. coli clinical isolate 129797 (resistant). The settings on record: E. coli clinical isolate 129797. The method, then: as §3, §4, §1, §2
Data set [9] deals with E. coli clinical isolate 301755 (MDR). The conditions noted are these: E. coli clinical isolate 301755. On the procedure:
as §3, §4, §1, §2

Data set [10] deals with E. faecalis clinical isolate 179. The conditions noted are these: E. faecalis clinical isolate 179. The method, then: as §3, §4, §1, §2
Data set [11] concerns E. faecalis clinical isolate 213. The conditions noted are these: E. faecalis clinical isolate 213. The method, then:
as §3, §4, §1, §2

Data set [12] relates to E. faecalis clinical isolate 82. The conditions noted are these: E. faecalis clinical isolate 82. On the procedure: as §3, §4, §1, §2
Data set [13] has as its system S. aureus clinical isolate 109095. The conditions noted are these: S. aureus clinical isolate 109095. On the procedure:
as §3, §4, §1, §2

Data set [14] has as its system S. aureus clinical isolate 124653. The settings on record: S. aureus clinical isolate 124653. The method, then:
as §3, §4, §1, §2

The subject of data set [15] is clinical isolates of E. faecalis. The settings on record: stated for the E. faecalis clinical isolates together. The method, then:
as §3, with “For E. faecalis three isolates were selected: strains 213 (sensitive to all the antibiotics tested), strain 82 (resistant to streptomycin), and strain 179 (resistant to gentamicin). These clinical isolates were selected to assess the antimicrobial activity of the peptide RWQWRWQWR and its analogues conjugated to fluorescent molecules in strains against strains with susceptibility profiles.” left out
The minimum inhibitory concentration (MIC) of the peptides was determined by the broth microdilution technique, according to the Clinical and Laboratory Standards Institute (CLSI) guidelines, as previously described. […] Serial dilutions of the peptides to be evaluated in 96-well plates were made in 90 µL of Mueller Hinton broth at concentrations ranging from 200 to 6.25 µg/mL, and 10 µL of the inoculum adjusted to 5 × 10^6 CFU/mL was added. Finally, the plates were incubated at 37 °C for 24 h, and the absorbance at 620 nm was read. […]

A short description of data set [16]: MTT cytotoxicity assay in HeLa cells. The conditions noted are these: human. On the procedure:
MTT assays were conducted in HeLa cells to evaluate the effect of fluorescent probe incorporation on the in vitro cytotoxic activity of the parent non-conjugated peptides. The cytotoxic effect of peptides 1, Abz-1 RhB-1, 2, and RhB-2 in HeLa cells was peptide concentration-dependent, with the highest anticancer activity observed at 200 µg/mL. Incorporation of 2-Abz and RhB at the N-terminal end reduced cytotoxic activity, while the binding of 2-Abz at the C-terminal end or FAM at the N-terminal end drastically diminished anticancer activity (Table 4).
For orientation: Formazan colour is commonly taken as a measure of viable cells.

Data set [17] is described as follows: Hemolysis assay. The method, then:
Whole blood was collected into EDTA tubes and centrifuged at 2500 rpm for 10 min. The plasma and buffy coat were removed, and the erythrocytes were washed three times with 0.9% saline to yield a 4% cell suspension. In 96-well plates, 100 µL of peptide dilutions (6.25–200 µg/mL) were prepared in triplicate, and 100 µL of the erythrocyte suspension was added (final hematocrit 2%). Plates were incubated at 37 °C for 2 h, and then centrifuged again at 2500 rpm for 10 min. A 100 µL aliquot of the supernatant was transferred to a fresh plate, and absorbance was measured at 450 nm. Saline and 1× Triton X-100 served as the negative and positive controls, respectively. Hemolysis (%) was calculated as follows: %hemolysis=treatment absorbance−saline absorbance/1×triton absorbance−saline absorbance

The test system of data set [18] is HeLa cells. As to the kind of experiment: Fluorescence confocal microscopy, colocalization analysis (ImageJ JaCoP). The settings on record: 2 h at IC50, colocalization with SMA antibody. The method, then:
The possible cellular distribution of the peptides was determined by colocalization analysis of the Rhodamine B fluorescent signal, with fluorophores used to stain the nucleus (Hoechst 33342) and cytoplasm components (SMA antibody). ImageJ 1.54f analysis software and the JaCoP plugin were used to analyze signal colocalization.
HeLa cells (>70% confluence) were seeded on sterile round coverslips in 24-well plates with DMEM + 5% FBS and incubated at 37 °C, 5% CO2 for 24 h. After adhesion, the medium was replaced, and cells were treated with fluorescent peptides at their IC50 for 2 h. Then, cells were washed with PBS under constant stirring (3 × 10 min). Cellular fixation was performed using a solution containing 2% paraformaldehyde and 1% sucrose 100 mM in PBS for 30 min, followed by PBS washes (2 × 10 min). Permeabilization was carried out using a solution of 0.1% Triton X-100 and 20 mM glycine in PBS for 10 min, followed by two additional PBS washes. Blocking was performed with 1% BSA and 20 mM glycine in PBS for 10 min. […] For the fluorescence lecture, 5 µL of Fluoromount mounting medium was applied to the slide, and the coverslip containing the cells was inverted onto the medium. Slides were allowed to be dry-protected from light, and cells were visualized using a Leica DMi8 fluorescence confocal microscope. […]

For data set [19], the system named is HeLa cells. As to the kind of experiment: Micrographs of cell morphology after peptide treatment. The conditions noted are these: 100 µg/mL, 2 h, 37 °C. An excerpt:
Despite these pronounced morphological alterations, there was no evidence of cell rupture, membrane disintegration, or the presence of cell fragments, indicating the absence of necrotic processes. […] Green arrows indicate normal morphologies, such as cytoplasmic elongations and polygonal shapes. Red arrows indicate morphological changes induced by the peptides, including cell rounding, shrinkage, and loss of cytoplasmic projections. Scale bar: µm. The control corresponds to untreated cells.

`N=C(N)NCCC[C@H](NC(=O)[C@H](Cc1c[nH]c2ccccc12)NC(=O)[C@H](CCC(N)=O)NC(=O)[C@H](Cc1c[nH]c2ccccc12)NC(=O)[C@H](CCCNC(=N)N)NC(=O)[C@H](Cc1c[nH]c2ccccc12)NC(=O)[C@H](CCC(N)=O)NC(=O)[C@H](Cc1c[nH]c2ccccc12)NC(=O)[C@H](CCCNC(=N)N)NC(=O)c1ccccc1N)C(N)=O` [Abz-1, (2-Abz)-RWQWRWQWR] (H-[2Abz]RWQWRWQWR-NH2): the “Minimal bactericidal concentration (MBC)” value in data set [1] is 125 µM (≈ 201 µg/mL); in data set [2] it was 62 µM (≈ 99.6 µg/mL); in [3] it was above 125 µM; in data set [4], above 125 µM; in data set [5], 31 µM (≈ 49.8 µg/mL); in [6] it was above 125 µM. For the same compound, the Minimal bactericidal concentration (MBC) in data set [7] was above 125 µM; in data set [8], above 125 µM; in data set [9], above 125 µM; in data set [10], 62 µM (≈ 99.6 µg/mL); in data set [11] it was 62 µM (≈ 99.6 µg/mL); in data set [12], 62 µM (≈ 99.6 µg/mL). Also, the Minimal bactericidal concentration (MBC) in [13] and in [14] was above 125 µM in each case. For the same compound, the “Minimal inhibitory concentration (MIC)” value was 62 µM (≈ 99.6 µg/mL) in data set [1]; 62 µM (≈ 99.6 µg/mL) in [2]; above 125 µM in data set [3]; above 125 µM in data set [4]; 16 µM (≈ 25.7 µg/mL) in data set [5]; 125 µM (≈ 201 µg/mL) in data set [6]. In addition, the Minimal inhibitory concentration (MIC) in data set [7] was above 125 µM; in data set [8], above 125 µM; in data set [9], above 125 µM; in data set [10] it was 31 µM (≈ 49.8 µg/mL); in [11], 31 µM (≈ 49.8 µg/mL); in data set [12] it was 31 µM (≈ 49.8 µg/mL). Also, the Minimal inhibitory concentration (MIC) in [13] and in data set [14] was 125 µM (≈ 201 µg/mL) throughout. Further, the MIC in data set [15] amounted to 31 µM (≈ 49.8 µg/mL). The IC50 in data set [16] (HeLa cells, MTT, read-out: Cytotoxic Activity (IC50)) is 140 µg/mL and 87 µM. Further, the hemolysis at 2 h in data set [17] (at 200 µg/mL (highest tested concentration), 2 h, 37 °C, read-out: hemolysis) turned out to be 13.4%; in data set [17] (at the lowest MIC concentration, read-out: Percentage of hemolysis) it was 6.5%. Besides, the selectivity ratio at 2 h in [17] (peptide concentration at 10% hemolysis / IC50 in HeLa cells, read-out: Selectivity index) was found to be 0.7.
Regarding `CCN(CC)c1ccc2c(-c3ccccc3C(=O)N[C@@H](CCCNC(=N)N)C(=O)N[C@@H](CCCNC(=N)N)C(=O)N[C@@H](Cc3c[nH]c4ccccc34)C(=O)N[C@@H](CCC(N)=O)C(=O)N[C@@H](Cc3c[nH]c4ccccc34)C(=O)N[C@@H](CCCNC(=N)N)C(=O)N[C@@H](CCc3ccccc3)C(=O)N[C@@H](CCCCN)C(=O)N[C@@H](CCCCN)C(=O)N[C@@H](CC(C)C)C(=O)NCC(=O)NCCCC[C@H](NC(=O)CNC(=O)[C@H](CC(C)C)NC(=O)[C@H](CCCCN)NC(=O)[C@H](CCCCN)NC(=O)[C@H](CCc3ccccc3)NC(=O)[C@H](CCCNC(=N)N)NC(=O)[C@H](Cc3c[nH]c4ccccc34)NC(=O)[C@H](CCC(N)=O)NC(=O)[C@H](Cc3c[nH]c4ccccc34)NC(=O)[C@H](CCCNC(=N)N)NC(=O)[C@H](CCCNC(=N)N)NC(=O)c3ccccc3-c3c4ccc(=[N+](CC)CC)cc-4oc4cc(N(CC)CC)ccc34)C(=O)NCCCCCC(N)=O)c3ccc(=[N+](CC)CC)cc-3oc2c1` [RhB-2, (RhB-RRWQWR-hF-KKLG)2K-Ahx] (I: RhodamineB-RRWQWR[hPhe]KKLGK[Ahx]-NH2 / II: RhodamineB-RRWQWR[hPhe]KKLG; amide I:12-II:C), in [16], the IC50 was 151 µg/mL and 35 µM. Also, the cellular localization entry in [18] is “internalized and distributed in the cytoplasm”. The morphological changes result in [19] was “appeared smaller, rounded, and contained vacuoles”.

What is called MIC is the least concentration at which growth counts as inhibited. Lower therefore signals a more susceptible organism. What is called IC50 is the concentration that inhibits the measured activity by half.
